#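 GI50: concentration for 50% inhibition of growth. TGI: concentration producing complete growth inhibition.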
# Legend:
# Test in all cases: NCI anticancer screen, dose series, 384-well format
# 786-0 renal = tested on: 786-0 renal
# A498 renal = tested on: A498 renal
# A549 NSCLC = tested on: A549 NSCLC
# ACHN renal = tested on: ACHN renal
# BT-549 breast = tested on: BT-549 breast
# CAKI-1 renal = tested on: CAKI-1 renal
# CCRF-CEM leukemia = tested on: CCRF-CEM leukemia
# COLO 205 colon = tested on: COLO 205 colon
# DU-145 prostate = tested on: DU-145 prostate
# EKVX NSCLC = tested on: EKVX NSCLC
# HCC-2998 colon = tested on: HCC-2998 colon
# HCT-15 colon = tested on: HCT-15 colon
# HL-60(TB) leukemia = tested on: HL-60(TB) leukemia
# HOP-62 NSCLC = tested on: HOP-62 NSCLC
# HOP-92 NSCLC = tested on: HOP-92 NSCLC
# HS 578T breast = tested on: HS 578T breast
# HT29 colon = tested on: HT29 colon
# IGROV1 ovarian = tested on: IGROV1 ovarian
# K-562 leukemia = tested on: K-562 leukemia
# KM12 colon = tested on: KM12 colon
# LOX IMVI melanoma = tested on: LOX IMVI melanoma
# M14 melanoma = tested on: M14 melanoma
# MALME-3M melanoma = tested on: MALME-3M melanoma
# MCF7 breast = tested on: MCF7 breast
# MDA-MB-231 breast = tested on: MDA-MB-231 breast
# MDA-MB-435 melanoma = tested on: MDA-MB-435 melanoma
# MDA-MB-468 breast = tested on: MDA-MB-468 breast
# MOLT-4 leukemia = tested on: MOLT-4 leukemia
# NCI-H226 lung = tested on: NCI-H226 lung
# NCI-H23 lung = tested on: NCI-H23 lung
# NCI-H322M lung = tested on: NCI-H322M lung
# NCI-H460 NSCLC = tested on: NCI-H460 NSCLC
# NCI-H522 lung = tested on: NCI-H522 lung
# NCI/ADR-RES ovarian = tested on: NCI/ADR-RES ovarian
# OVCAR-3 ovarian = tested on: OVCAR-3 ovarian
# OVCAR-4 ovarian = tested on: OVCAR-4 ovarian
# OVCAR-5 ovarian = tested on: OVCAR-5 ovarian
# OVCAR-8 ovarian = tested on: OVCAR-8 ovarian
# PC-3 prostate = tested on: PC-3 prostate
# RPMI-8226 leukemia = tested on: RPMI-8226 leukemia
# RXF 393 renal = tested on: RXF 393 renal
# SF-268 CNS = tested on: SF-268 CNS
# SF-295 CNS = tested on: SF-295 CNS
# SF-539 CNS = tested on: SF-539 CNS
# SK-MEL-28 melanoma = tested on: SK-MEL-28 melanoma
# SK-MEL-5 melanoma = tested on: SK-MEL-5 melanoma
# SK-OV-3 ovarian = tested on: SK-OV-3 ovarian
# SN12C renal = tested on: SN12C renal
# SNB-19 CNS = tested on: SNB-19 CNS
# SNB-75 CNS = tested on: SNB-75 CNS
# SR leukemia = tested on: SR leukemia
# SW-620 colon = tested on: SW-620 colon
# T-47D breast = tested on: T-47D breast
# TK-10 renal = tested on: TK-10 renal
# U251 glioblastoma = tested on: U251 glioblastoma
# UACC-257 melanoma = tested on: UACC-257 melanoma
# UACC-62 melanoma = tested on: UACC-62 melanoma
# UO-31 renal = tested on: UO-31 renal
compound,measurement,setting,value
Cc1sc2c(c1C)C(c1ccc(Cl)cc1)=N[C@@H](CC(=O)OC(C)(C)C)c1nnc(C)n1-2,GI50,786-0 renal,118 nM
same,TGI,786-0 renal,13800 nM
same,GI50,A498 renal,197 nM
same,TGI,A498 renal,9700 nM
same,GI50,A549 NSCLC,177 nM
same,TGI,A549 NSCLC,13600 nM
same,GI50,ACHN renal,560 nM
same,TGI,ACHN renal,16900 nM
same,GI50,BT-549 breast,51 nM
same,TGI,BT-549 breast,869 nM
same,GI50,CAKI-1 renal,53.9 nM
same,TGI,CAKI-1 renal,13000 nM
same,GI50,CCRF-CEM leukemia,230 nM
same,TGI,CCRF-CEM leukemia,1680 nM
same,GI50,COLO 205 colon,100 nM
same,TGI,COLO 205 colon,11500 nM
same,GI50,DU-145 prostate,2220 nM
same,TGI,DU-145 prostate,20100 nM
same,GI50,EKVX NSCLC,4610 nM
same,TGI,EKVX NSCLC,20500 nM
same,GI50,HCC-2998 colon,94.6 nM
same,TGI,HCC-2998 colon,394 nM
same,GI50,HCT-15 colon,48.4 nM
same,TGI,HCT-15 colon,371 nM
same,GI50,HL-60(TB) leukemia,23.3 nM
same,TGI,HL-60(TB) leukemia,73.2 nM
same,GI50,HOP-62 NSCLC,71.9 nM
same,TGI,HOP-62 NSCLC,10900 nM
same,GI50,HOP-92 NSCLC,74.4 nM
same,TGI,HOP-92 NSCLC,13600 nM
same,GI50,HS 578T breast,30.7 nM
same,TGI,HS 578T breast,266 nM
same,GI50,HT29 colon,82 nM
same,TGI,HT29 colon,12600 nM
same,GI50,IGROV1 ovarian,160 nM
same,TGI,IGROV1 ovarian,1190 nM
same,GI50,K-562 leukemia,139 nM
same,TGI,K-562 leukemia,13500 nM
same,GI50,KM12 colon,322 nM
same,TGI,KM12 colon,13200 nM
same,GI50,LOX IMVI melanoma,57.3 nM
same,TGI,LOX IMVI melanoma,223 nM
same,GI50,M14 melanoma,447 nM
same,TGI,M14 melanoma,17500 nM
same,GI50,MALME-3M melanoma,96.7 nM
same,TGI,MALME-3M melanoma,2330 nM
same,GI50,MCF7 breast,38.3 nM
same,TGI,MCF7 breast,10300 nM
same,GI50,MDA-MB-231 breast,57.7 nM
same,TGI,MDA-MB-231 breast,13700 nM
same,GI50,MDA-MB-435 melanoma,599 nM
same,TGI,MDA-MB-435 melanoma,10700 nM
same,GI50,MDA-MB-468 breast,37.3 nM
same,TGI,MDA-MB-468 breast,109 nM
same,GI50,MOLT-4 leukemia,201 nM
same,TGI,MOLT-4 leukemia,1170 nM
same,GI50,NCI-H226 lung,106 nM
same,TGI,NCI-H226 lung,12300 nM
same,GI50,NCI-H23 lung,148 nM
same,TGI,NCI-H23 lung,3500 nM
same,GI50,NCI-H322M lung,241 nM
same,TGI,NCI-H322M lung,14600 nM
same,GI50,NCI-H460 NSCLC,1040 nM
same,TGI,NCI-H460 NSCLC,15000 nM
same,GI50,NCI-H522 lung,56 nM
same,TGI,NCI-H522 lung,434 nM
same,GI50,NCI/ADR-RES ovarian,80.5 nM
same,TGI,NCI/ADR-RES ovarian,839 nM
same,GI50,OVCAR-3 ovarian,86 nM
same,TGI,OVCAR-3 ovarian,1070 nM
same,GI50,OVCAR-4 ovarian,42.1 nM
same,TGI,OVCAR-4 ovarian,254 nM
same,GI50,OVCAR-5 ovarian,183 nM
same,TGI,OVCAR-5 ovarian,14500 nM
same,GI50,OVCAR-8 ovarian,91.7 nM
same,TGI,OVCAR-8 ovarian,1750 nM
same,GI50,PC-3 prostate,744 nM
same,TGI,PC-3 prostate,16500 nM
same,GI50,RPMI-8226 leukemia,26.8 nM
same,TGI,RPMI-8226 leukemia,74.7 nM
same,GI50,RXF 393 renal,1140 nM
same,TGI,RXF 393 renal,17500 nM
same,GI50,SF-268 CNS,984 nM
same,TGI,SF-268 CNS,19300 nM
same,GI50,SF-295 CNS,815 nM
same,TGI,SF-295 CNS,17300 nM
same,GI50,SF-539 CNS,286 nM
same,TGI,SF-539 CNS,12900 nM
same,GI50,SK-MEL-28 melanoma,448 nM
same,TGI,SK-MEL-28 melanoma,16700 nM
same,GI50,SK-MEL-5 melanoma,96.4 nM
same,TGI,SK-MEL-5 melanoma,1910 nM
same,GI50,SK-OV-3 ovarian,142 nM
same,TGI,SK-OV-3 ovarian,6780 nM
same,GI50,SN12C renal,3260 nM
same,TGI,SN12C renal,19900 nM
same,GI50,SNB-19 CNS,371 nM
same,TGI,SNB-19 CNS,16200 nM
same,GI50,SNB-75 CNS,634 nM
same,TGI,SNB-75 CNS,19100 nM
same,GI50,SR leukemia,27.3 nM
same,TGI,SR leukemia,252 nM
same,GI50,SW-620 colon,10100 nM
same,TGI,SW-620 colon,21800 nM
same,GI50,T-47D breast,293 nM
same,TGI,T-47D breast,13200 nM
same,GI50,TK-10 renal,91.5 nM
same,TGI,TK-10 renal,8290 nM
same,GI50,U251 glioblastoma,1170 nM
same,TGI,U251 glioblastoma,17900 nM
same,GI50,UACC-257 melanoma,58.1 nM
same,TGI,UACC-257 melanoma,1940 nM
same,GI50,UACC-62 melanoma,43 nM
same,TGI,UACC-62 melanoma,10500 nM
same,GI50,UO-31 renal,837 nM
same,TGI,UO-31 renal,20600 nM

# From PubChem BioAssay (NCI)
